The results in this text go back to patent publication US11285156B2, “Substituted piperazines as KRAS G12C inhibitors” (Amgen Inc., priority 2018, dated 2022).

The target in assay [1] is GDP-bound KRAS protein (aa 1-169), containing both G12C and C118A amino acid substitutions (Homo sapiens (Human), UniProt P01116, C118A/G12C). Briefly: Coupled nucleotide exchange assay (SOS-mediated nucleotide exchange, AlphaScreen). To be noted: 5 min compound pre-incubation; for IC50: read-out: Coupled exchange IC50 (5 min; μM). Type of assay: biochemical.
Sequence of GDP-bound KRAS protein (aa 1-169), containing both G12C and C118A amino acid substitutions (P01116 other isoform, or with tags, fused parts or gaps G12C/C118A): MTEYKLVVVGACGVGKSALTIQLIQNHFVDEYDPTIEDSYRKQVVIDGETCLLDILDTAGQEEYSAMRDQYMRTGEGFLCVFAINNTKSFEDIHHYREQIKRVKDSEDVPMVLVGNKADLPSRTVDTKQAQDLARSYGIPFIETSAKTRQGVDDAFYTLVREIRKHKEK
Experimental: Coupled Nucleotide Exchange Assay:
Following compound pre-incubation, purified SOS protein (aa 564-1049) and GTP (Roche 10106399001) were added to the assay wells and incubated for an additional 30 min (for 5 min compound pre-incubation) or 1 hour (for 2 hour compound pre-incubation). […] The assay plates were then read on a PerkinElmer EnVision Multilabel Reader, using AlphaScreen® technology, and data were analyzed using a 4-parameter logistic model to calculate IC50 values.
The test system of assay [2] is Phosphorylation of ERK1/2 in MIA PaCa-2 cells. In words: Phospho-ERK1/2 MSD assay in MIA PaCa-2 cells. It counts as cell-based. The following applies: read-out: p-ERK IC50 (2 h, MiaPaCa-2; μM), 2 h compound treatment, MIA PaCa-2 cells, EGF stimulated. The method in brief:
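Phospho-ERK1/2 measured by MSD electrochemiluminescence kit in RIPA lysates of MIA PaCa-2 cells. Cells were treated with compound titrations for 2 or 4 h at 37 °C, 5% CO2, followed by a 10 min pulse of 10 ng/mL EGF.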

The subject of assay [3] is Phosphorylation of ERK1/2 in A549 cells. In words: Phospho-ERK1/2 MSD assay in A549 cells. It counts as cell-based. The following applies: read-out: p-ERK IC50 (2 h, A549; μM), 2 h compound treatment, A549 cells, EGF stimulated. Summed up: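 MSD electrochemiluminescent read-out of phospho-ERK1/2 in RIPA lysates. Cells in RPMI 1640 with 10% FBS received titrated compound for 2 or 4 h, then 10 ng/mL EGF for 10 min before ice-cold PBS wash and lysis.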

Where two headings read alike, the source gives them in different places. Bounds are passed on as bounds.

Regarding `C=CC(=O)N1C[C@H](C)N(c2nc(=O)n(-c3c(CN4CCC4)cccc3C(C)C)c3nc(-c4ccccc4F)c(Cl)cc23)C[C@H]1C` [Example 80-12, 1-[2-(azetidin-1-ylmethyl)-6-isopropyl-phenyl]-6-chloro-4-[(2S,5R)-2,5-dimethyl-4-prop-2-enoyl-piperazin-1-yl]-7-(2-fluorophenyl)pyrido[2,3-d]pyrimidin-2-one], the half-inhibitory concentration (IC50) in assay [1] is 0.064 µM; in assay [2] (Homo sapiens, MIA PaCa-2, 2 h), 0.074 µM; in assay [3] (Homo sapiens, A549, 2 h), above 7.5 µM.

Turning to `C=CC(=O)N1CCN(c2nc(=O)n(-c3c(CN(C)C)cccc3C(C)C)c3nc(-c4ccccc4F)c(Cl)cc23)[C@@H](C)C1` [Example 80-13, 6-Chloro-1-[2-[(dimethylamino)methyl]-6-isopropyl-phenyl]-7-(2-fluorophenyl)-4-[(2S)-2-methyl-4-prop-2-enoyl-piperazin-1-yl]pyrido[2,3-d]pyrimidin-2-one], the IC50 in assay [1] is 0.043 µM; in assay [2] (Homo sapiens, MIA PaCa-2, 2 h), 0.053 µM; in assay [3] (Homo sapiens, A549, 2 h) it was above 7.5 µM.

Regarding `C=CC(=O)N1C[C@H](C)N(c2nc(=O)n(-c3c(C)cc(CN(C)C)cc3C(C)C)c3nc(-c4ccccc4F)c(F)cc23)C[C@H]1C` [Example 80-20, 1-[4-[(Dimethylamino)methyl]-2-isopropyl-6-methyl-phenyl]-4-[(2S,5R)-2,5-dimethyl-4-prop-2-enoyl-piperazin-1-yl]-6-fluoro-7-(2-fluorophenyl)pyrido[2,3-d]pyrimidin-2-one], the half-inhibitory concentration (IC50) was 0.763 µM in assay [1]; 0.735 µM in assay [2]; above 7.5 µM in assay [3] (Homo sapiens, A549, 2 h).

Consider `C=CC(=O)N1C[C@H](C)N(c2nc(=O)n(-c3c(C)cc(CN(C)C)cc3C(C)C)c3nc(-c4c(O)cccc4F)c(F)cc23)C[C@H]1C` [Example 80-21, 1-[4-[(Dimethylamino)methyl]-2-isopropyl-6-methyl-phenyl]-4-[(2S,5R)-2,5-dimethyl-4-prop-2-enoyl-piperazin-1-yl]-6-fluoro-7-(2-fluoro-6-hydroxy-phenyl)pyrido[2,3-d]pyrimidin-2-one], for which the IC50 in assay [1] was 0.25 µM; in assay [2] (Homo sapiens, MIA PaCa-2, 2 h), 0.138 µM; in assay [3] (Homo sapiens, A549, 2 h) it was above 7.5 µM.

For the compound `C=CC(=O)N1C[C@H](C)N(c2nc(=O)n(-c3c(C(C)C)cnn3C(C)C)c3nc(-c4ccccc4F)c(Cl)cc23)C[C@H]1C` [Example 100-1, 6-Chloro-1-(2,4-diisopropylpyrazol-3-yl)-4-[(2S,5R)-2,5-dimethyl-4-prop-2-enoyl-piperazin-1-yl]-7-(2-fluorophenyl)pyrido[2,3-d]pyrimidin-2-one], the IC50 in assay [1] was 0.084 µM; in assay [2] (Homo sapiens, MIA PaCa-2, 2 h), 0.123 µM; in assay [3] (Homo sapiens, A549, 2 h), above 7.5 µM.

With `C=CC(=O)N1C[C@H](C)N(c2nc(=O)n(-c3c(C(C)C)ncnc3C(C)C)c3nc(-c4ccc(C#N)cc4F)c(Cl)cc23)C[C@H]1C` [Example 100-2, 4-[6-Chloro-1-(4,6-diisopropylpyrimidin-5-yl)-4-[(2S,5R)-2,5-dimethyl-4-prop-2-enoyl-piperazin-1-yl]-2-oxo-pyrido[2,3-d]pyrimidin-7-yl]-3-fluoro-benzonitrile], the IC50 in assay [1] is 0.324 µM; in assay [2] (Homo sapiens, MIA PaCa-2, 2 h), 0.298 µM; in assay [3] (Homo sapiens, A549, 2 h) it was above 7.5 µM.

For the compound `C=CC(=O)N1C[C@H](C)N(c2nc(=O)n(-c3c(C(C)C)ncnc3C(C)C)c3nc(-c4ccccc4C(C)C)c(Cl)cc23)C[C@H]1C` [Example 100-4, 6-Chloro-1-(4,6-diisopropylpyrimidin-5-yl)-4-[(2S,5R)-2,5-dimethyl-4-prop-2-enoyl-piperazin-1-yl]-7-(2-isopropylphenyl) pyrido[2,3-d]pyrimidin-2-one], the IC50 in assay [1] was 0.006 µM; in assay [2] (Homo sapiens, MIA PaCa-2, 2 h) it was 0.106 µM; in assay [3] (Homo sapiens, A549, 2 h) it was above 7.5 µM.

For `C=CC(=O)N1C[C@H](C)N(c2nc(=O)n(-c3c(C(C)C)cncc3C(C)C)c3nc(-c4c(O)cccc4F)c(F)cc23)C[C@H]1C` [Example 101-1, 1-(3,5-Diisopropyl-4-pyridyl)-4-[(2S,5R)-2,5-dimethyl-4-prop-2-enoyl-piperazin-1-y]-6-fluoro-7-(2-fluoro-6-hydroxy-phenyl)pyrido[2,3-d]pyrimidin-2-one], the IC50 in assay [1] is 0.134 µM; in assay [2], 0.116 µM; in assay [3] it was above 7.5 µM.

Take `C=CC(=O)N1C[C@H](C)N(c2nc(=O)n(-c3c(C(C)C)ncnc3C(C)C)c3nc(-c4ccccc4F)c(F)cc23)C[C@H]1C` [Example 101-2, 1-(4,6-Diisopropylpyrimidin-5-yl)-4-[(2S,5R)-2,5-dimethyl-4-prop-2-enoyl-piperazin-1-yl]-6-fluoro-7-(2-fluorophenyl)pyrido [2,3-d]pyrimidin-2-one]: the concentration for half-maximal inhibition (IC50) was 0.16 µM in assay [1]; 0.116 µM in assay [2] (Homo sapiens, MIA PaCa-2, 2 h); above 7.5 µM in assay [3] (Homo sapiens, A549, 2 h).

As for `C=CC(=O)N1C[C@@H](C)N(c2nc(=O)n(-c3c(C(C)C)ncnc3C(C)C)c3nc(-c4ccccc4F)c(F)cc23)[C@@H](C)C1` [Example 101-3, 1-(4,6-Diisopropylpyrimidin-5-yl)-4-[(2R,6S)-2,6-dimethyl-4-prop-2-enoyl-piperazin-1-yl]-6-fluoro-7-(2-fluorophenyl)pyrido [2,3-d]pyrimidin-2-one], the IC50 is 0.195 µM in assay [1]; 0.208 µM in assay [2] (Homo sapiens, MIA PaCa-2, 2 h); above 7.5 µM in assay [3] (Homo sapiens, A549, 2 h).

For the compound `C=CC(=O)N1C[C@H](C)N(c2nc(=O)n(-c3c(Cl)ncnc3C(C)C)c3nc(-c4ccccc4F)c(Cl)cc23)C[C@H]1C` [Example 102-5, 6-Chloro-1-(4-chloro-6-isopropyl-pyrimidin-5-yl)-4-[(2S,5R)-2,5-dimethyl-4-prop-2-enoyl-piperazin-1-yl]-7-(2-fluorophenyl) pyrido[2,3-d]pyrimidin-2-one], the 50% inhibitory concentration (IC50) was 0.071 µM in assay [1]; 0.084 µM in assay [2]; above 7.5 µM in assay [3] (Homo sapiens, A549, 2 h).

Regarding `C=CC(=O)N1C[C@H](C)N(c2nc(=O)n(-c3c(Cl)ncnc3C(C)C)c3nc(-c4ccccc4C)c(Cl)cc23)C[C@H]1C` [Example 102-6, 6-Chloro-1-(4-chloro-6-isopropyl-pyrimidin-5-yl)-4-[(2S,5R)-2,5-dimethyl-4-prop-2-enoyl-piperazin-1-yl]-7-(o-tolyl)pyrido[2,3-d]pyrimidin-2-one], the half-maximal inhibitory concentration (IC50) was 0.066 µM in assay [1]; 0.063 µM in assay [2] (Homo sapiens, MIA PaCa-2, 2 h); above 7.5 µM in assay [3] (Homo sapiens, A549, 2 h).

Consider `C=CC(=O)N1C[C@H](C)N(c2nc(=O)n(-c3c(N(C)C)ccnc3C(C)C)c3nc(-c4ccccc4C(C)C)c(Cl)cc23)C[C@H]1C` [Example 103-1, 4-((2S,5R)-4-Acryloyl-2,5-dimethylpiperazin-1-yl)-6-chloro-1-(4-(dimethylamino)-2-isopropylpyridin-3-yl)-7-(2-isopropylphenyl)pyrido[2,3-d]pyrimidin-2(1H)-one], for which the IC50 is 0.105 µM in assay [1]; 0.107 µM in assay [2]; above 7.5 µM in assay [3] (Homo sapiens, A549, 2 h).

In the case of `C=CC(=O)N1C[C@H](C)N(c2nc(=O)n(-c3c(C(C)C)ncn(C)c3=O)c3nc(-c4ccccc4F)c(Cl)cc23)C[C@H]1C` [Example 103-2, 6-Chloro-4-[(2S,5R)-2,5-dimethyl-4-prop-2-enoyl-piperazin-1-yl]-7-(2-fluorophenyl)-1-(4-isopropyl-1-methyl-6-oxo-pyrimidin-5-yl)pyrido[2,3-d]pyrimidin-2-one], the IC50 is 0.084 µM in assay [1]; 0.04 µM in assay [2] (Homo sapiens, MIA PaCa-2, 2 h); above 7.5 µM in assay [3] (Homo sapiens, A549, 2 h).

With `C=CC(=O)N1C[C@H](C)N(c2nc(=O)n(-c3c(C(C)C)cccc3[S+](C)[O-])c3nc(-c4ccccc4F)c(Cl)cc23)C[C@H]1C` (stereo partly drawn) [Example 103-3, 4-((2S,5R)-4-acryloyl-2,5-dimethylpiperazin-1-yl)-6-chloro-7-(2-fluorophenyl)-1-(2-isopropyl-6-(methylsulfinyl)phenyl)pyrido[2,3-d]pyrimidin-2(1H)-one], in assay [1], the “Coupled exchange IC50 (5 min; μM)” value came out at 0.677 µM. Besides, the IC50 in assay [2] (Homo sapiens, MIA PaCa-2, 2 h) was 0.143 µM; in assay [3] (Homo sapiens, A549, 2 h) it was above 7.5 µM.

`C=CC(=O)N1C[C@H](C)N(c2nc(=O)n(-c3c(C(C)C)cncc3C(C)C)c3nc(-c4ccccc4F)c(Cl)cc23)C[C@H]1C` [Example 103-4, 6-Chloro-1-(3,5-diisopropyl-4-pyridyl)-4-[(2S,5R)-2,5-dimethyl-4-prop-2-enoyl-piperazin-1-yl]-7-(2-fluorophenyl) pyrido[2,3-d]pyrimidin-2-one]: the IC50 in assay [1] is 0.057 µM; in assay [2] (Homo sapiens, MIA PaCa-2, 2 h) it was 0.062 µM; in assay [3] (Homo sapiens, A549, 2 h) it was above 7.5 µM.

Regarding `C=CC(=O)N1C[C@H](C)N(c2nc(=O)n(-c3c(N(CC)CC)ccnc3C(C)C)c3nc(-c4ccccc4C(C)C)c(Cl)cc23)C[C@H]1C` [Example 103-5, 6-Chloro-1-[4-(diethylamino)-2-isopropyl-3-pyridyl]-4-[(2S,5R)-2,5-dimethyl-4-prop-2-enoyl-piperazin-1-yl]-7-(2-isopropylphenyl) pyrido[2,3-d]pyrimidin-2-one], the IC50 in assay [1] is 0.2 µM; in assay [2] (Homo sapiens, MIA PaCa-2, 2 h), 0.507 µM; in assay [3] (Homo sapiens, A549, 2 h) it was above 7.5 µM.

For `C=CC(=O)N1C[C@H](C)N(c2nc(=O)n(-c3c(N(CC)CC)ccnc3C(C)C)c3nc(-c4ccccc4C)c(Cl)cc23)C[C@H]1C` [Example 103-6, 6-chloro-1-[4-(diethylamino)-2-isopropyl-3-pyridyl]-4-[(2S,5R)-2,5-dimethyl-4-prop-2-enoyl-piperazin-1-yl]-7-(o-tolyl)pyrido[2,3 d]pyrimidin-2-one], the IC50 in assay [1] is 0.08 µM; in assay [2] (Homo sapiens, MIA PaCa-2, 2 h) it was 0.474 µM; in assay [3] (Homo sapiens, A549, 2 h), above 7.5 µM.
